pEC50: −log10 of the molar value.

This experiment deals with Plasmodium falciparum. Description: OSM: Erythrocyte assay. NF54 with 3H-Hypoxanthine at 72hr time point. Format: functional, organism-based.
For orientation: pEC50 means the negative decadic logarithm of the EC50, by convention in mol/L. Higher therefore signals a small EC50. For the molecule `[O-][n+]1cc(OCCc2ccc(F)c(F)c2)n2c(-c3ccc(OC(F)F)cc3)nnc2c1`, the pEC50 is 5.40.

In the case of `Fc1ccc(CCOc2cnc(Cl)c3nnc(-c4ccc(OC(F)F)cc4)n23)cc1F`, the pEC50 is 6.80. Consider `OCCc1cncc2nnc(-c3ccc(OC(F)F)cc3)n12`, for which the negative logarithm of the EC50 (pEC50) is 5.00. Turning to `OCCC1CNCc2nnc(-c3ccc(OC(F)F)cc3)n21` (stereo unspecified), the pEC50 is 5.08. The value for `Fc1ccc(N2CC(Oc3cncc4nnc(-c5ccc(OC(F)F)cc5)n34)C2)cc1F` was 6.37; that for `FC(F)Oc1ccc(-c2nnc3cncc(N4CCC(c5ccccc5)C4)n23)cc1` (stereo unspecified) was 5.70; that for `O=C(NCc1cccc(Cl)c1)c1cncc2nnc(-c3ccc(OC(F)F)cc3)n12` was 6.60. In turn, `Fc1ccc(CCOc2cncc3nnc(C4CCOCC4)n23)cc1F` had a pEC50 of 5.00. Take `FC(F)Oc1ccc(-c2nnc3n2CCNC3)cc1`: the pEC50 was 5.00.

`CC(=O)N1CCC(c2nnc3cncc(OCCc4ccc(F)c(F)c4)n23)CC1` had a pEC50 of 5.00.

Regarding `NCC(=O)N1CCn2c(nnc2-c2ccc(OC(F)F)cc2)C1`, the negative logarithm of the EC50 (pEC50) was 5.00.

For `O=C(c1cncc2nnc(-c3ccc(OC(F)F)cc3)n12)N1Cc2ccccc2C1`, the pEC50 was 5.00. As for `O=C(NCc1ccc(Cl)cc1)c1cncc2nnc(-c3ccc(OC(F)F)cc3)n12`, the figure is 5.87. For the molecule `O=C(NCc1ccccc1Cl)c1cncc2nnc(-c3ccc(OC(F)F)cc3)n12`, the pEC50 is 6.42.

The molecule `O=C(NCC1CCOCC1)c1cncc2nnc(-c3ccc(OC(F)F)cc3)n12` gave a pEC50 of 5.00.

In turn, `Fc1ccc(CCOc2cncc3nnc(Nc4ccc(F)c(F)c4)n23)cc1F` gave a pEC50 of 6.07. Consider `Fc1ccc(OC2CN(c3cncc4nnc(-c5ccc(OC(F)F)cc5)n34)C2)cc1F`, for which the pEC50 was 5.30. `Fc1ccc(CCOc2cncc3nnc(N4CCCCC4)n23)cc1F` had a pEC50 of 5.58. Consider `O=C(c1cncc2nnc(-c3ccc(OC(F)F)cc3)n12)N1CCN(c2ccccn2)CC1`, for which the pEC50 was 5.00. For the molecule `O=C(NCCN1CCOCC1)c1cncc2nnc(-c3ccc(OC(F)F)cc3)n12`, the pEC50 is 5.00. The molecule `O=C(c1cncc2nnc(-c3ccc(OC(F)F)cc3)n12)N1CCOCC1` showed a pEC50 of 5.00.

Consider `C[C@H](NC(=O)c1cncc2nnc(-c3ccc(OC(F)F)cc3)n12)c1ccccc1`, for which the pEC50 is 5.80.

`O=C(c1cncc2nnc(-c3ccc(OC(F)F)cc3)n12)N1CCCC1` gave a pEC50 of 5.00. As for `CS(=O)(=O)N1CCN(C(=O)c2cncc3nnc(-c4ccc(OC(F)F)cc4)n23)CC1`, the pEC50 is 5.00.

Turning to `C[C@@H](NC(=O)c1cncc2nnc(-c3ccc(OC(F)F)cc3)n12)c1ccccc1`, the pEC50 was 5.87. The molecule `O=c1[nH]cc(OCCc2ccc(F)c(F)c2)n2c(-c3ccc(OC(F)F)cc3)nnc12` gave a pEC50 of 5.38. In turn, `O=C(Nc1ccccn1)c1cncc2nnc(-c3ccc(OC(F)F)cc3)n12` showed a pEC50 of 5.00. The value for `O=C(NCCc1ccccc1)c1cncc2nnc(-c3ccc(OC(F)F)cc3)n12` was 5.50.

Molecule `Fc1ccc(CCOc2cncc3nnc(N4Cc5ccccc5C4)n23)cc1F` showed a pEC50 of 6.33.

`CCN(CC)c1ncc(OCCc2ccc(F)c(F)c2)n2c(-c3ccc(OC(F)F)cc3)nnc12` had a pEC50 of 5.16. `O=S(=O)(Cc1ccc(C(F)(F)F)cc1)Nc1cncc2nnc(-c3ccc(OC(F)F)cc3)n12` showed a pEC50 of 5.00. Take `O=C(c1cncc2nnc(-c3ccc(OC(F)F)cc3)n12)N1CCCC1c1ccccc1` (stereo unspecified): the negative-log EC50 (pEC50) was 5.45. As to `CN(Cc1cccc(Cl)c1)C(=O)c1cncc2nnc(-c3ccc(OC(F)F)cc3)n12`, the pEC50 is 5.97. Consider `FC(F)Oc1ccc(-c2nnc3cncc(CCCc4ccccc4)n23)cc1`, for which the pEC50 is 6.55.

For the molecule `FC(F)Oc1ccc(-c2nnc3cncc(CCN4CCOCC4)n23)cc1`, the pEC50 is 5.00.

In turn, `FC(F)Oc1ccc(-c2nnc3n2C(CCCc2ccccc2)CNC3)cc1` (stereo unspecified) had a pEC50 of 5.06. The molecule `Nc1ncc(OCCc2ccc(F)c(F)c2)n2c(-c3ccc(OC(F)F)cc3)nnc12` showed a pEC50 of 5.00. As for `FC(F)Oc1ccc(-c2nnc3cncc(CCN4Cc5ccccc5C4)n23)cc1`, the figure is 5.00; as for `FC(F)Oc1ccc(-c2nnc3cncc(N4CC(c5ccccc5)C4)n23)cc1`, 5.00. As for `Fc1ccc(COCc2cncc3nnc(-c4ccc(OC(F)F)cc4)n23)cc1F`, the figure is 6.44; as for `Cc1ncc(OCCc2ccc(F)c(F)c2)n2c(-c3ccc(OC(F)F)cc3)nnc12`, 5.16; as for `O=C(Nc1cccc(Cl)c1)c1cncc2nnc(-c3ccc(OC(F)F)cc3)n12`, 6.74.

Consider `O=C(NCc1ccc(F)c(F)c1)c1cncc2nnc(-c3ccc(OC(F)F)cc3)n12`, for which the pEC50 was 6.55.

For the molecule `O=C(NCc1cncc2nnc(-c3ccc(OC(F)F)cc3)n12)c1cccc(Cl)c1`, the pEC50 was 5.00.

Regarding `FC(F)Oc1ccc(-c2nnc3cncc(Oc4ccc(Cl)cc4)n23)cc1`, the negative-log EC50 (pEC50) is 5.53. The molecule `CO[C@@H](COc1cncc2nnc(-c3ccc(C#N)cc3)n12)c1ccc(F)c(F)c1` showed a pEC50 of 7.40. `Fc1ccc(CCOc2cncc3ncc(-c4ccc(Cl)cc4)n23)cc1F` showed a pEC50 of 6.96. As for `FC(F)Oc1ccc(-c2nnc3cncc(CN4Cc5ccccc5C4)n23)cc1`, the figure is 6.96; as for `O=C(Nc1ccc(F)cc1)c1cncc2nnc(-c3ccc(OC(F)F)cc3)n12`, 5.43; as for `O=C(Nc1ccc(F)c(F)c1)c1cncc2nnc(-c3ccc(OC(F)F)cc3)n12`, 6.19. The value for `Fc1ccc(CCCc2cncc3nnc(-c4ccc(OC(F)F)cc4)n23)cc1F` was 6.49. Regarding `O=C(Nc1ccc(Cl)cc1)c1cncc2nnc(-c3ccc(OC(F)F)cc3)n12`, the negative-log EC50 (pEC50) was 5.30. The molecule `Fc1ccc2c(c1)CCN2c1nnc2cncc(OCCc3ccc(F)c(F)c3)n12` had a pEC50 of 5.69.

`Fc1ccc(CCOc2cncc3cnc(-c4ccc(Cl)cc4)n23)cc1F` gave a pEC50 of 6.08. In the case of `CN(C)[C@@H](COc1cncc2nnc(-c3ccc(OC(F)F)cc3)n12)c1ccc(F)c(F)c1`, the pEC50 was 7.36. As for `Fc1ccc(C2(COc3cncc4nnc(-c5ccc(OC(F)F)cc5)n34)COC2)cc1F`, the figure is 6.32. The molecule `N#Cc1ccc(-c2nnc3cncc(OCC(OC(F)F)c4ccc(F)c(F)c4)n23)cc1` (stereo unspecified) gave a pEC50 of 7.78. For the molecule `FC(F)Oc1ccc(-c2nnc3cncc(Oc4ccc5ccccc5c4)n23)cc1`, the pEC50 is 6.94. Molecule `FC(F)Oc1ccc(-c2nnc3cncc(OCC(F)(F)F)n23)cc1` gave a pEC50 of 5.00.

`CN[C@@H](COc1cncc2nnc(-c3ccc(OC(F)F)cc3)n12)c1ccc(F)c(F)c1` showed a negative-log EC50 (pEC50) of 5.00. For `FC(F)Oc1ccc(-c2nnc3cncc(Oc4ccc(C(F)(F)F)cc4)n23)cc1`, the pEC50 is 6.42.

`FC(F)Oc1ccc(-c2nnc3cncc(Oc4ccc(Cl)c(Cl)c4)n23)cc1` gave a pEC50 of 6.34. The molecule `O=C(Nc1ccc(F)c(Cl)c1)c1cncc2nnc(-c3ccc(OC(F)F)cc3)n12` gave a pEC50 of 6.72. The value for `O=C(c1cncc2nnc(-c3ccc(OC(F)F)cc3)n12)N1CCc2cc(F)ccc21` was 5.00.

`FC(F)Oc1ccc(-c2nnc3cncc(Nc4ccc(Cl)c(Cl)c4)n23)cc1` gave a negative logarithm of the EC50 (pEC50) of 5.02.

With `FC(F)Oc1ccc(-c2nnc3cncc(Oc4cccc(Cl)c4)n23)cc1`, the pEC50 was 5.51.

In turn, `Fc1ccc(CCOc2cncc3nnc(-c4ccc(C(F)(F)F)nc4)n23)cc1F` gave a pEC50 of 6.58. With `O=C(Nc1ccnc(C(F)(F)F)c1)c1cncc2nnc(-c3ccc(OC(F)F)cc3)n12`, the pEC50 is 6.85. `Fc1ccc(CCOc2cn3c(-c4ccc(OC(F)F)cc4)nnc3cn2)cc1F` showed a pEC50 of 7.47. With `Fc1ccc(COc2cn3c(-c4ccc(OC(F)F)cc4)nnc3cn2)cc1F`, the pEC50 is 6.28.

In the case of `OCC(COc1cncc2nnc(-c3ccc(OC(F)F)cc3)n12)c1ccc(F)c(F)c1` (stereo unspecified), the pEC50 is 7.61. The value for `Fc1ccc(CNc2cn3c(-c4ccc(OC(F)F)cc4)nnc3cn2)cc1F` was 5.00; that for `Fc1ccc(C(COc2cncc3nnc(-c4ccc(OC(F)F)cc4)n23)N2CCOCC2)cc1F` (stereo unspecified) was 6.21. Turning to `CC(C)(C)c1ccc(Oc2cncc3nnc(-c4ccc(OC(F)F)cc4)n23)cc1`, the negative logarithm of the EC50 (pEC50) is 6.13. Take `FC(F)Oc1ccc(-c2nnc3cncc(Oc4ccc5c(c4)CCCC5)n23)cc1`: the pEC50 was 5.59. In the case of `FC(F)Oc1ccc(-c2nnc3cncc(Oc4ccc(Cl)c(C(F)(F)F)c4)n23)cc1`, the pEC50 is 6.22.

As for `N[C@@H](COc1cncc2nnc(-c3ccc(OC(F)F)cc3)n12)c1ccc(F)c(F)c1`, the pEC50 is 6.56.

`OC[C@H](Nc1cncc2nnc(-c3ccc(OC(F)F)cc3)n12)c1ccc(F)c(F)c1` gave a pEC50 of 6.24. In turn, `Fc1ccc(-c2cnn(-c3cncc4nnc(-c5ccc(OC(F)F)cc5)n34)c2)cc1F` showed a pEC50 of 5.17. `O=C(Nc1ccc(F)cc1Cl)c1cncc2nnc(-c3ccc(OC(F)F)cc3)n12` gave a pEC50 of 5.25. As for `Fc1ccc(Nc2cn3c(-c4ccc(OC(F)F)cc4)nnc3cn2)cc1F`, the figure is 5.00; as for `O=C(NCc1cc(Cl)ccc1Cl)c1cncc2nnc(-c3ccc(OC(F)F)cc3)n12`, 6.48. The value for `O=C(NCc1cccc(C(F)(F)F)c1Cl)c1cncc2nnc(-c3ccc(OC(F)F)cc3)n12` was 6.51. Turning to `Fc1ccc(Cc2nccn2-c2cncc3nnc(-c4ccc(OC(F)F)cc4)n23)cc1F`, the pEC50 is 5.00. For the molecule `Cc1nn(-c2ccc(F)cc2)c(C)c1-c1nnc2cncc(OCC(F)(F)F)n12`, the pEC50 is 5.00. Molecule `FC(F)Oc1ccc(-c2nnc3cncc(Oc4ccc(S(F)(F)(F)(F)F)cc4)n23)cc1` gave a pEC50 of 6.58.

`Fc1ccc(Oc2cn3c(-c4ccc(OC(F)F)cc4)nnc3cn2)cc1F` had a pEC50 of 5.46. `Fc1ccc(CCNc2cn3c(-c4ccc(OC(F)F)cc4)nnc3cn2)cc1` had a pEC50 of 5.00. As for `Cc1nn(-c2ccc(F)cc2)c(C)c1-c1nnc2cncc(Oc3ccc(Cl)c(Cl)c3)n12`, the figure is 5.00. `Fc1ccc([C@H]2[C@@H](Oc3cncc4nnc(-c5ccc(OC(F)F)cc5)n34)CN2C2CC2)cc1F`: the pEC50 is 6.22. The molecule `O=C1[C@H](Oc2cncc3nnc(-c4ccc(OC(F)F)cc4)n23)[C@H](c2ccc(F)c(F)c2)N1C1CC1` gave a pEC50 of 5.95.
